The values that follow come from patent US20250122208A1, “CHEMOKINE RECEPTOR MODULATORS AND USES THEREOF” (RAPT THERAPEUTICS, INC., priority 2023, published 2025).

The structures appear in SMILES notation.

In this assay the target is T1, CCR4 receptor (Homo sapiens, UniProt P51679).
T1 construct: beta-galactosidase enzyme-fragment tag; From own knowledge, PathHunter uses a ProLink/enzyme-donor fragment, usually at the receptor's C-terminus; expressed in transfected cells; host or cells: CHO-K1
T1 sequence (P51679 1-360): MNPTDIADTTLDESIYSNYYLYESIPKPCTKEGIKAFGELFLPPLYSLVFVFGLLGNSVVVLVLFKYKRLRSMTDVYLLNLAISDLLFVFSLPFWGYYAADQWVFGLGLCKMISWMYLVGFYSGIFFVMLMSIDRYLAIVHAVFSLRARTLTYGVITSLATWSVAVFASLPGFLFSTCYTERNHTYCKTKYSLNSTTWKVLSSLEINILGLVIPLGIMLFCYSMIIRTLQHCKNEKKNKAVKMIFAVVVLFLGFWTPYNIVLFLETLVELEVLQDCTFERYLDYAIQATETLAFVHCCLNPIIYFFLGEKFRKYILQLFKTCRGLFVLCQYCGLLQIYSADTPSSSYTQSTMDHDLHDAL
Briefly: CCR4 antagonist activity in Beta-Arrestin Cellular Assay (PathHunter, CCL22 challenge). The format is cell-based. The conditions noted are these: CHO-K1 cells expressing the CCR4 receptor; CCL22 at EC80 (15 nM), 90 minutes; 30 min pre-incubation; read-out: Potency (CCR4 antagonist IC50 in the β-arrestin assay). The procedure: Example 39. Determination of CCR4 antagonist activity in Beta-Arrestin Cellular Assay
CCR4 Antagonistic Activity was assessed in Beta-Arrestin Cellular Assay. Compounds were assessed in CHO-K1 cells expressing the CCR4 receptor modified to enable β-glactosidase detection of β-arrestin agonist activity stimulated by CCL22 in a chemiluminescence assay. Cells were seeded in a total volume of 20 μL into white walled, 384-well microplates and incubated at 37° C. prior to testing. Cells were pre-incubated with test compound for 30 min at 37° C. followed by agonist challenge with CCL22 at the EC80 concentration (15 nM) for 90 minutes. Assay signal was generated through a single addition of 12.5 or 15 μL ([…]) of PathHunter Detection reagent cocktail, followed by a one-hour incubation at room temperature. Microplates were read following signal generation with a PerkinElmer Envision™ instrument for chemiluminescent signal detection. Antagonist activity was analyzed using CBIS data analysis suite (ChemInnovation, CA). Antagonist activity was characterized as percentage inhibition calculated using the following formula:
An IC50 of >500 nM is designated as Potency C, an IC50 of between 500 nM and 100 nM is designated as Potency B and an IC50 of <100 nM is designated as Potency A.

As a reminder, the IC50 is the concentration that inhibits the measured activity by half. On to `C[C@@H](Nc1cc(N2CCC([C@H]3CCCN([C@H]4C[C@](C)(C(=O)O)C4)C3)CC2)nc2ccnn12)c1ccc(F)cc1F` [Example 34, (1R,3r)-3-((R)-1′-(7-(((R)-1-(2,4-difluorophenyl)ethyl)amino)pyrazolo[1,5-a]pyrimidin-5-yl)-[3,4′-bipiperidin]-1-yl)-1-methylcyclobutane-1-carboxylic acid], for which the 50% inhibitory concentration (IC50) was below 100 nM.
On to `C[C@@H](Nc1cc(N2CCC([C@H]3CCCN(C4CCOCC4)C3)CC2)nc2ncnn12)c1ccc(Cl)cc1Cl` [Example 6, N-((R)-1-(2,4-dichlorophenyl)ethyl)-5-((R)-1-(tetrahydro-2H-pyran-4-yl)-[3,4′-bipiperidin]-1′-yl)-[1,2,4]triazolo[1,5-a]pyrimidin-7-amine], for which the half-maximal inhibitory concentration (IC50) is below 100 nM.
Consider `C[C@@H](Nc1cc(N2CCC([C@H]3CCCN(CCS(C)(=O)=O)C3)CC2)nc2ncnn12)c1ccc(Cl)cc1Cl` [Example 12, N-((R)-1-(2,4-dichlorophenyl)ethyl)-5-((R)-1-(2-(methylsulfonyl)ethyl)-[3,4′-bipiperidin]-1′-yl)-[1,2,4]triazolo[1,5-a]pyrimidin-7-amine], for which the IC50 was below 100 nM.
With `CC(CCN1CCC[C@H](C2CCN(c3cc(N[C@H](C)c4ccc(Cl)cc4Cl)n4ncnc4n3)CC2)C1)C(=O)O` (mixture of isomers) [Example 16, 4-((R)-1′-(7-(((R)-1-(2,4-dichlorophenyl)ethyl)amino)-[1,2,4]triazolo[1,5-a]pyrimidin-5-yl)-[3,4′-bipiperidin]-1-yl)-2-methylbutanoic acid] the figure was below 100 nM; with `C[C@@H](Nc1cc(N2CCC([C@H]3CCCN(Cc4ncc[nH]4)C3)CC2)nc2ncnn12)c1ccc(Cl)cc1Cl` [Example 4, 5-((R)-1-((1H-imidazol-2-yl)methyl)-[3,4′-bipiperidin]-1′-yl)-N-((R)-1-(2,4-dichlorophenyl)ethyl)-[1,2,4]triazolo[1,5-a]pyrimidin-7-amine], below 100 nM; with `C[C@@H](Nc1cc(N2CCC([C@H]3CCCN(C4CCCC4)C3)CC2)nc2ncnn12)c1ccc(Cl)cc1Cl` [Example 10, 5-((R)-1-cyclopentyl-[3,4′-bipiperidin]-1′-yl)-N-((R)-1-(2,4-dichlorophenyl)ethyl)-[1,2,4]triazolo[1,5-a]pyrimidin-7-amine], below 100 nM.
With `C[C@@H](Nc1cc(N2CCC([C@H]3CCCN([C@H]4C[C@](C)(C(=O)O)C4)C3)CC2)nc2ccnn12)c1ccc(Cl)cc1F` [Example 38, (1R,3r)-3-((R)-1′-(7-(((R)-1-(4-chloro-2-fluorophenyl)ethyl)amino)pyrazolo[1,5-a]pyrimidin-5-yl)-[3,4′-bipiperidin]-1-yl)-1-methylcyclobutane-1-carboxylic acid] the figure was below 100 nM; with `Cc1cc(F)ccc1[C@@H](C)Nc1cc(N2CCC([C@H]3CCCN([C@H]4C[C@](C)(C(=O)O)C4)C3)CC2)nc2ncnn12` [Example 28, (1R,3r)-3-((R)-1′-(7-(((R)-1-(4-fluoro-2-methylphenyl)ethyl)amino)-[1,2,4]triazolo[1,5-a]pyrimidin-5-yl)-[3,4′-bipiperidin]-1-yl)-1-methylcyclobutane-1-carboxylic acid], 100 to 500 nM; with `CC(CN1CCC[C@H](C2CCN(c3cc(N[C@H](C)c4ccc(Cl)cc4Cl)n4ncnc4n3)CC2)C1)C(=O)O` (mixture of isomers) [Example 15, 3-((R)-1′-(7-(((R)-1-(2,4-dichlorophenyl)ethyl)amino)-[1,2,4]triazolo[1,5-a]pyrimidin-5-yl)-[3,4′-bipiperidin]-1-yl)-2-methylpropanoic acid], below 100 nM.
With `C[C@@H](Nc1cc(N2CCC([C@H]3CCCN(Cc4nc[nH]n4)C3)CC2)nc2ncnn12)c1ccc(Cl)cc1Cl` [Example 5, 5-((R)-1-((1H-1,2,4-triazol-3-yl)methyl)-[3,4′-bipiperidin]-1′-yl)-N-((R)-1-(2,4-dichlorophenyl)ethyl)-[1,2,4]triazolo[1,5-a]pyrimidin-7-amine] the figure was below 100 nM; with `CC(=O)NCCN1CCC[C@H](C2CCN(c3cc(N[C@H](C)c4ccc(Cl)cc4Cl)n4ncnc4n3)CC2)C1` [Example 13, N-(2-((R)-1′-(7-(((R)-1-(2,4-dichlorophenyl)ethyl)amino)-[1,2,4]triazolo[1,5-a]pyrimidin-5-yl)-[3,4′-bipiperidin]-1-yl)ethyl)acetamide], below 100 nM; with `C[C@@H](Nc1cc(N2CCC(C3CCCN(CCO)C3)C2)nc2ncnn12)c1ccc(Cl)cc1Cl` (single isomer, unassigned) [Example 23b], below 100 nM.
With `C[C@@H](Nc1cc(N2CCC([C@H]3CCCNC3)CC2)nc2ncnn12)c1ccc(Cl)cc1Cl` [Example 1, 5-((R)-[3,4′-bipiperidin]-1′-yl)-N-((R)-1-(2,4-dichlorophenyl)ethyl)-[1,2,4]triazolo[1,5-a]pyrimidin-7-amine], the half-inhibitory concentration (IC50) is below 100 nM.
With `C[C@@H](Nc1cc(N2CCC([C@H]3CCCN([C@H]4C[C@](C)(C(=O)O)C4)C3)CC2)nc2ncnn12)c1ccc(F)cc1Cl` [Example 26, (1R,3r)-3-((R)-1′-(7-(((R)-1-(2-chloro-4-fluorophenyl)ethyl)amino)-[1,2,4]triazolo[1,5-a]pyrimidin-5-yl)-[3,4′-bipiperidin]-1-yl)-1-methylcyclobutane-1-carboxylic acid], the IC50 was below 100 nM.
As for `Cc1cc(Cl)ccc1[C@@H](C)Nc1cc(N2CCC([C@H]3CCCN([C@H]4C[C@](C)(C(=O)O)C4)C3)CC2)nc2ncnn12` [Example 33, (1R,3r)-3-((R)-1′-(7-(((R)-1-(4-chloro-2-methylphenyl)ethyl)amino)-[1,2,4]triazolo[1,5-a]pyrimidin-5-yl)-[3,4′-bipiperidin]-1-yl)-1-methylcyclobutane-1-carboxylic acid], the IC50 lay within 100 to 500 nM.
Consider `CNC(=O)CCN1CCC[C@H](C2CCN(c3cc(N[C@H](C)c4ccc(Cl)cc4Cl)n4ncnc4n3)CC2)C1` [Example 17, 3-((R)-1′-(7-(((R)-1-(2,4-dichlorophenyl)ethyl)amino)-[1,2,4]triazolo[1,5-a]pyrimidin-5-yl)-[3,4′-bipiperidin]-1-yl)-N-methylpropanamide], for which the IC50 is below 100 nM.
Then `C[C@@H](Nc1cc(N2CCC([C@H]3CCCN([C@H]4C[C@](C)(C(=O)O)C4)C3)CC2)nc2ncnn12)c1ccc(F)cc1F` [Example 35, (1R,3r)-3-((R)-1′-(7-(((R)-1-(2,4-difluorophenyl)ethyl)amino)-[1,2,4]triazolo[1,5-a]pyrimidin-5-yl)-[3,4′-bipiperidin]-1-yl)-1-methylcyclobutane-1-carboxylic acid], with 100 to 500 nM; and `C[C@@H](Nc1cc(N2CCC(C3CCCN(CCO)C3)C2)nc2ncnn12)c1ccc(Cl)cc1Cl` (single isomer, unassigned) [Example 23a], with below 100 nM.
